Results on four compounds are retold here after patent US20200278355A1, “CONJUGATED PROTEINS AND USES THEREOF” (THE SCRIPPS RESEARCH INSTITUTE, priority 2017, published 2020).

For experiment [1], the system named is cysteine reactivity in H2122 and H1975 cells. Nature of the experiment: isoTOP-ABPP of cysteine reactivity changes after staurosporine or AZD9291 treatment. The experiment is classed as cell-based, human. As to conditions: staurosporine 1 μM, 4 h (H2122, H1975); AZD9291 1 μM, 24 h (H1975). The procedure: For analysis of cysteines that change following induction of apoptosis, H2122 and H1975 cells were treated with DMSO or staurosporine (1 μM, 4 h) in full RPMI. H1975 cells were treated with DMSO or AZD9291 (1 μM, 24 h) in full RPMI. Cells were lysed as described above. […] Samples were conjugated by copper-catalyzed azide-alkyne cycloaddition (CuAAC) to isotopically labeled, TEV-cleavable tags (TEV-tags). Heavy CuAAC reaction mixtures was added to the DMSO-treated or shGFP control samples and light CuAAC reaction mixture was added to compound-treated or shNRF2 samples. The CuAAC reaction mixture consisted of TEV tags (light or heavy, 10 μL of 5 mM stocks in DMSO, final concentration=100 μM), 1 mM tris(2-carboxyethyl)phosphine hydrochloride (TCEP; fresh 50× stock in water, final concentration=1 mM), ligand (17× stock in DMSO:t-butanol 1:4, final concentration=100 μM) and 1 mM CuSO4 (50× stock in water, final concentration=1 mM). The samples were allowed to react for 1 h at which point the samples were centrifuged (16,000×g, 5 min, 4° C.). The resulting pellets were sonicated in ice-cold methanol (500 μL) and the resuspended light- and heavy-labeled samples were then combined pairwise and centrifuged (16,000×g, 5 min, 4° C.). […] Samples were analyzed using an LTQVelos Orbitrap mass spectrometer (Thermo Scientific) coupled to an Agilent 1200-series quaternary pump. […]

In another experiment the target is T1, NR0B1 (Homo sapiens, UniProt P51843).
T1 construct: H460 cells or H460 cells expressing luciferase in a 10 cm plate were incubated with indicated compounds; endogenous in cells; host or cells: H460 (NSCLC, KEAP1-mutant)
T1 sequence (P51843 1-470): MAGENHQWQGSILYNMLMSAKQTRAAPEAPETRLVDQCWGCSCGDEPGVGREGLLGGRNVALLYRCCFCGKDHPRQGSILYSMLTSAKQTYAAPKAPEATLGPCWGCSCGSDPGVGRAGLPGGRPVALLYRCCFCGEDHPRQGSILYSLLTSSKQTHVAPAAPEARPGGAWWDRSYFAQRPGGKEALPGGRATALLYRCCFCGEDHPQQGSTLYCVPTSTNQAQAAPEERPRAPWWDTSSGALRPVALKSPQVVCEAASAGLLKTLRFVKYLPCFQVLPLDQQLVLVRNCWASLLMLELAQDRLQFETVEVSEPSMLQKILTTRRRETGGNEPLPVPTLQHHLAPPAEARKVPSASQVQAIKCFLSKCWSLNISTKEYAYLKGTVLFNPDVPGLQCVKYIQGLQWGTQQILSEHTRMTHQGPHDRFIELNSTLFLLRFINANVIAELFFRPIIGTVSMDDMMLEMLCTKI
Nature of the experiment: isoTOP-ABPP of compound-treated H460 cells: NR0B1. Type of experiment: cell-based. As to conditions: NSCLC cells, 40 μM, 3 h. The method, then:
For analysis of NR0B1 ligands or control compound reactivity, H460 cells or H460 cells expressing luciferase in a 10 cm plate were incubated with indicated compounds in serum/dye-free RPMI for 3 hours at 37° C. Cells were washed once ice-cold PBS and lysed in 1% Triton X-100 dissolved in PBS with protease inhibitors (Sigma) by sonication. Samples were clarified by centrifugation for 10 min at 16,000×g. Lysate was adjusted to 1.5 mg ml^−1 in 500 μL.
Samples were labeled for 1 h at ambient temperature with 100 μM iodoacetamide alkyne (1, IA-alkyne, 5 μL of 10 mM stock in DMSO). Samples were conjugated by copper-catalyzed azide-alkyne cycloaddition (CuAAC) to isotopically labeled, TEV-cleavable tags (TEV-tags). Heavy CuAAC reaction mixtures was added to the DMSO-treated or shGFP control samples and light CuAAC reaction mixture was added to compound-treated or shNRF2 samples. The CuAAC reaction mixture consisted of TEV tags (light or heavy, 10 μL of 5 mM stocks in DMSO, final concentration=100 μM), 1 mM tris(2-carboxyethyl)phosphine hydrochloride (TCEP; fresh 50× stock in water, final concentration=1 mM), ligand (17× stock in DMSO:t-butanol 1:4, final concentration=100 μM) and 1 mM CuSO4 (50× stock in water, final concentration=1 mM). The samples were allowed to react for 1 h at which point the samples were centrifuged (16,000×g, 5 min, 4° C.). The resulting pellets were sonicated in ice-cold methanol (500 μL) and the resuspended light- and heavy-labeled samples were then combined pairwise and centrifuged (16,000×g, 5 min, 4° C.). The pellets were solubilized in PBS containing 1.2% SDS (1 mL) with sonication and heating (5 min, 95° C.) and any insoluble material was removed by an additional centrifugation step at ambient temperature (14,000×g, 1 min).
For each sample, 100 μL of streptavidin-agarose beads slurry (Fisher) was washed in 10 mL PBS and then resuspended in 6 mL PBS (final concentration 0.2% SDS in PBS). The SDS-solubilized proteins were added to the suspension of streptavidin-agarose beads and the bead mixture was rotated for 3 h at ambient temperature. After incubation, the beads were pelleted by centrifugation (1,400×g, 3 min) and were washed (2×10 mL PBS and 2×10 mL water).
The beads were transferred to eppendorftubes with 1 mL PBS, centrifuged (1,400×g, 3 min), and resuspended in PBS containing 6 M urea (500 μL). To this was added 10 mM DTT (25 μL of a 200 mM stock in water) and the beads were incubated at 65° C. for 15 mins. 20 mM iodoacetamide (25 μL of a 400 mM stock in water) was then added and allowed to react at 37° C. for 30 mins with shaking. The bead mixture was diluted with 900 μL PBS, pelleted by centrifugation (1,400×g, 3 min), and resuspended in PBS containing 2 M urea (200 μL). To this was added 1 mM CaCl2 (2 μL of a 200 mM stock in water) and trypsin (2 μg, Promega, sequencing grade) and the digestion was allowed to proceed overnight at 37° C. with shaking. The beads were separated from the digest with Micro Bio-Spin columns (Bio-Rad) by centrifugation (1,000×g, 1 min), washed (2×1 mL PBS and 2×1 mL water) and then transferred to fresh eppendorf tubes with 1 mL water. The washed beads were washed once further in 140 μL TEV buffer (50 mM Tris, pH 8, 0.5 mM EDTA, 1 mM DTT) and then resuspended in 140 μL TEV buffer. 5 μL TEV protease (80 μM) was added and the reactions were rotated overnight at 29° C. The TEV digest was separated from the beads with Micro Bio-Spin columns by centrifugation (1,400×g, 3 min) and the beads were washed once with water (100 μL). The samples were then acidified to a final concentration of 5% (v/v) formic acid and stored at −80° C. prior to analysis.
Samples processed for multidimensional liquid chromatography tandem mass spectrometry (MudPIT) were pressure loaded onto a 250 μm (inner diameter) fused silica capillary columns packed with C18 resin (Aqua 5 μm, Phenomenex). […]

The test system of another experiment is KEAP1-mutant NSCLC cells. Nature of the experiment: Colony formation in soft agar, KEAP1-mutant NSCLC cells. The experiment is classed as cell-based, human. Conditions: 5 μM. The text has this:
Based on its in situ activity (FIG. 6D and FIG. 12A, 12G) and selectivity (FIGS. 6A, 6B), BPK-29 was chosen for additional biological studies. […] Exogenous expression of […] the growth inhibition caused by BPK-29.

Another experiment deals with T2, NR0B1-SNW1 interaction (Homo sapiens, UniProt P51843).
T2 construct: endogenous in cells; host or cells: NR0B1: H2122 cell lysate
T2 sequence (P51843 1-470): T1 sequence (P51843 1-470)
The experiment is described as follows: In vitro binding assay: NR0B1 in H2122 lysate binding to immobilized FLAG-SNW1. The procedure: H2122 clarified cell lysate (100 μL, 1 mg ml^−1) in IP-buffer were incubated with the indicated compounds or vehicle (DMSO) for 3 hours at 4° C. with rotation. Following treatment, 3 volumes of IP-buffer was added along with immobilized FLAG-SNW1 beads (30 μL, 50:50 slurry), which was incubated for an additional hour at 4° C. Beads were washed three times with IP-buffer supplemented with 500 mM NaCl. Immunoprecipitated proteins were resolved by SDS-PAGE and analyzed by immunoblotting. NR0B1 and HA-NR0B1 levels were determined by using the NR0B1 antibody (Cell Signaling). IC50 curves were determined using Prism 6 (Graphpad) software, with maximum and minimum values set at 100% NR0B1 bound 0% NR0B1 bound respectively.
Statistical analysis was preformed using GraphPad Prism version 6 or 7 for Mac, GraphPad Software, La Jolla Calif. USA, or the R statistical programming language. Inhibition curves of the NR0B1-SNW1 interactions by NR0B1-ligand are fit as using log(inhibitor) vs % normalized remaining of NR0B1-SNW1 interaction and data points are plotted as the mean±SD (n=2-5 per group). NR0B1 half-life was calculated from a one-phase exponential decay curve plotted as mean±SD (4-10 per group). Statistical significance was defined as p<0.05 and determined by 2-tailed Student's t-test (FIG. 1I, FIG. 3B), two-way Anova with Bonferroni post-test analysis (FIG. 1J) or correlation analysis using Pearson product-moment correlation coefficient (FIG. 4B, FIG. 10G).
Next, a chemical probe targeting C274 of NR0B1 was developed. Using an in vitro binding assay (FIG. 5B), an ˜80-member library of cysteine-reactive electrophilic compounds was screened at 50 μM for blockade of interactions between endogenous NR0B1 and recombinant FLAG-SNW1 in cell lysates (FIG. 5C). Among the hits (>50% blockade) were a series of N-disubstituted chloroacetamides (CAs), including BPK-26 (FIGS. 5D, 5E), that were selected for further investigation. […] Both BPK-26 and BPK-29 inhibited the NR0B1-SNW1 interaction with IC50 values between 10-20 μM in vitro (FIG. 11C).

With `C=CC(=O)Nc1cc(Nc2nccc(-c3cn(C)c4ccccc34)n2)c(OC)cc1N(C)CCN(C)C` [AZD9291], in experiment [1], the “changes in cysteine reactivity” value is “neither of which caused substantive changes in cysteine reactivity”. As for `COc1cc(CN(C(=O)CCl)c2cc(C(C)(C)C)ccc2OC)ccc1OCc1ccccc1` [BPK-27, N-(4-(benzyloxy)-3-methoxybenzyl)-N-(5-(tert-butyl)-2-methoxyphenyl)-2-chloroacetamide], at NR0B1, the “engagement of C274 of NR0B1” value is listed as “did not engage C274”. Moreover, in the experiment with KEAP1-mutant NSCLC cells, the “colony formation in soft agar” value was “much less of an effect”. Also, the “inhibition of the NR0B1-SNW1 interaction” value at NR0B1-SNW1 interaction (tested concentration range of 1-50 μM) is on record as “did not inhibit”. `CN[C@@H]1C[C@H]2O[C@@](C)([C@@H]1OC)n1c3ccccc3c3c4c(c5c6ccccc6n2c5c31)C(=O)NC4` [staurosporine]: the “changes in cysteine reactivity” value in experiment [1] is “neither of which caused substantive changes in cysteine reactivity”. As for `Cc1ccccc1C(=O)N1CCCC(N(Cc2ccccc2)C(=O)CCl)CC1` (stereo not drawn) [BPK-28, N-benzyl-2-chloro-N-(1-(2-methylbenzoyl)azepan-4-yl)acetamide], the “relative potency for inhibition of FLAG-SNW1 binding to NR0B1 (structure-activity relationship)” value on NR0B1-SNW1 interaction (compounds at 50 μM) is “only modest reductions in potency”.
